Assay results as given in publication PMC12838479 (Fluids and Barriers of the CNS, 2025).

Tests used:
BBB [1] = test: Multiple-time regression analysis of BBB uptake (Ki, Vi) in control and LPS-treated mice; type: in vivo
Excerpt: (§1) where t is the time between i.v. injection and blood draw, Cp is the level of radioactivity in serum (expressed as %Inj/ml), Cpt is the level of radioactivity in serum at time t, and τ is the dummy variable for time. Exposure time corrects for the clearance of the compound of interest from blood. The Y-intercept measures Vi (in units of µl/g), which is the vascular space and initial luminal binding at t = 0. Ki and Vi values are reported with their standard errors and the number of mice included in the linear portion of the regression curve. Slopes and intercepts were compared statistically with program in Prism 10.0 (GraphPad Inc, San Diego, CA). The percent of the injected dose that entered each g of brain (%Inj/g) was calculated after washout of the vascular space using the equation: […]

[2] = Single time point (10 min) brain/serum ratio after iv co-injection in control and LPS-treated mice; details: male, CD-1, mouse, in vivo
Excerpt: (§2) Treatment with LPS: Male CD-1 mice were purchased from Charles River and studied at 8–12 weeks of age. All animal studies were approved by the Institutional Animal Care and Use Committee of the Veterans Affairs Puget Sound Health Care System, an IACUC approved institution, in compliance with the Association for Assessment and Accreditation of Laboratory Animal Care International. Lipopolysaccharide (LPS) derived from Salmonella enterica subtype typhimurium (#L6511) was purchased from Sigma Chemical Company. Mice were given IP injections of approximately 0.1 ml of saline at 0, 6, or 24 h with LPS included in no injections, in only the single 0 h injection, or in all (0, 6, and 24 h) injections at a dose of 3 mg/kg LPS. Mice were studied 28 h after the 0 h injection (4 h after the last injection).
(§3) After a specified time, the abdomen was opened and arterial blood obtained from the abdominal aorta and immediately the thorax was opened, the descending thoracic aorta was clamped, both jugular veins were severed, the left ventricle of the heart was cannulated, and 20 ml of cold LR-BSA perfused in 60 s via the left ventricle of the heart in order to wash out the vascular space of the brain. After this, brains were collected and counted in a gamma counter. […] Brain/serum ratios are expressed in units of µl/g.
(§4) In some studies, mice were studied only at 10 min after the jugular injection of radioactivity. For multiple-time regression analysis, mice were sacrificed at 1, 2, 5, 10, 15, and 30 min after the jugular injection.

[3] = system: human induced pluripotent stem cell (iPSC)-derived brain endothelial-like cells (iBECs); test: In vitro monolayer iBEC permeability (Transwell leakage) versus TEER; type: in vitro ADME; details: iBEC monolayers, all TEER levels
Procedure: In Vitro BBB model: Differentiation of iBECs: The varied TEERs of iBECs were achieved during initial experiments that optimized seeding densities for differentiation of the GM25256 iPSC line. iBECs were differentiated from the GM25256 cell line using protocols described by Hollmann et al.. These resulting iBECs have been previously characterized to have many BEC traits including expression of high TEER levels and GLUT1, CLDN5, VE-Cad, PECAM-1, ZO-1, and OCLN proteins. Briefly, iPSCs were grown in E8 Medium on Matrigel in 6-well plates. When colonies were large and nearly touching, but prior to confluence, iPSCs were washed once with DPBS (Thermo Fisher Scientific) and incubated with Accutase (Stem Cell Technologies) for 3 min to yield a single cell suspension. Cells were collected via centrifugation, resuspended in E8, and counted using a hemocytometer. […] To assess barrier properties, TEER was measured 24 h after subculture using an EVOM2 voltohmeter with an EndOhm cup chamber (World Precision Instruments). […] TEER was measured approximately every 24 h thereafter. […]
Leakage was further assessed after 1–14 days post-subculture by placing in the input medium, consisting of HESFM + 1% BSA, 0.1 µCi ^14C-sucrose and 1 million CPM ^99mTc-DTPA or 3 million CPM ^99mTc-albumin per Transwell. […] Then, the radioactivity was counted in a Tricarb beta counter (Perkin Elmer) to measure ^14C-sucrose levels. […]

BBB [4] = test: Single time point (10 min) brain/serum ratio after iv co-injection in control and LPS-treated mice; details: for increase in brain/serum ratio (leakiness): three dose LPS vs control; for brain region permeability change: 10 min after iv injection, one-way ANOVA per region
Excerpt: as §2, §3, §4

BBB [5] = test: Percent of the injected dose that entered each g of brain (%Inj/g), 10 min; type: in vivo, mice; details: for %Inj/g-brain: 10 min; for increase in %Inj/g-brain: three injections of LPS vs control
Excerpt: as §1
where cpm/g is the level of radioactivity in the brain tissue, g is the weight of the brain tissue, and cpmi is the amount of radioactivity injected intravenously.

[6] = 10 min, DTPA and albumin co-injected

OC[C@H]1O[C@@](CO)(O[C@H]2O[C@H](CO)[C@@H](O)[C@H](O)[C@H]2O)[C@@H](O)[C@@H]1O [sucrose]
Vi (vascular space and initial luminal binding) (BBB [1]; control mice): 8.43 ± 1.26 µL/g
Vi (vascular space and initial luminal binding) (BBB [1]; single injection of LPS): 16.2 µL/g
Vi (vascular space and initial luminal binding) (BBB [1]; three injections of LPS): 14.5 ± 4.82 µL/g
Kp at 10 min [2]: 0.00402 to 0.00518

bovine serum albumin
in vitro permeability (Pe) compared with simultaneously studied sucrose [3]: much lower penetration than sucrose at all TEER levels
Vi (vascular space and initial luminal binding) (BBB [1]; control mice): 0.245 ± 0.0431 µL/g
Vi (vascular space and initial luminal binding) (BBB [1]; single injection of LPS): 0.197 ± 0.0438 µL/g
Vi (vascular space and initial luminal binding) (BBB [1]; three injections of LPS): 0.325 ± 0.0893 µL/g
increase in brain/serum ratio (leakiness) (BBB [4]; [6]): 111%
%Inj/g-brain (BBB [5]; control mice): 0.026 %Inj/g-brain
increase in %Inj/g-brain (BBB [5]): 81%
%Inj/g-brain (BBB [5]; three injections of LPS): 0.0490 %Inj/g-brain

O=C(O)CN(CCN(CC(=O)O)CC(=O)O)CCN(CC(=O)O)CC(=O)O (99mTc complex, metal not drawn) [DTPA, Diethylenetriaminepentaacetic acid]
in vitro permeability (Pe) compared with simultaneously studied sucrose [3]: essentially identical in vitro results
Vi (vascular space and initial luminal binding) (BBB [1]; control mice): 1.62 ± 0.29 µL/g
Vi (vascular space and initial luminal binding) (BBB [1]; single injection of LPS): 1.43 ± 0.334 µL/g
Vi (vascular space and initial luminal binding) (BBB [1]; three injections of LPS): 1.487 ± 1.104 µL/g
mean percent increase in permeability of 4 sessions (BBB [4]; 3 dose injection of LPS, DTPA and sucrose co-injected): 79.2 +/- 16%
brain region permeability change (BBB [4]; 3 injections of LPS): all regions except the olfactory bulb had a significant increase
detection of BBB disruption (BBB [4]; 10 min, DTPA and albumin co-injected, LPSx1 and LPSx3): showed disruption at the single dose of LPS as well as at the three doses
control brain/serum ratio relative to albumin (BBB [4]; 10 min, simultaneous injection of DTPA and albumin, control mice): about 5 fold
% change of brain/serum ratio relative to respective Control (BBB [4]; LPSx1, Day 1): 12%
% change of brain/serum ratio relative to respective Control (BBB [4]; LPSx1, Day 2): -0.025%
% change of brain/serum ratio relative to respective Control (BBB [4]; LPSx1, Repeat Day 2): 29%
% change of brain/serum ratio relative to respective Control (BBB [4]; LPSx3, Day 1): 79%
% change of brain/serum ratio relative to respective Control (BBB [4]; LPSx3, Day 2): 57%
BBB disruption, combined data of 4 sessions (BBB [4]; one injection of LPS): did not disrupt the BBB
brain region permeability change (BBB [4]; single injection of LPS): No brain region had a statistically significant increase in permeability
increase in brain/serum ratio (leakiness) (BBB [4]; [6]): 136%
increase in permeation, combined data of 4 sessions (BBB [4]; three injections of LPS): 69%
%Inj/g-brain (BBB [5]; control mice): 0.035 %Inj/g-brain
increase in %Inj/g-brain (BBB [5]): 117%
%Inj/g-brain (BBB [5]; three injections of LPS): 0.0760 %Inj/g-brain
